Reference: US9499550B2 (BRISTOL-MYERS SQUIBB COMPANY, priority 2012, dated 2016)
Like-named read-outs stand apart in the source and are kept apart here.

Key:
[1] = tested on: HCV genotype 1b (Con1) replicon in HUH-7 cells; assay: HCV replicon luciferase reporter assay, genotype 1b; format: cell-based; conditions: Hepatitis C virus, Huh-7, 72 h, 3 days incubation
How it was run: (§1)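 Replicon inhibition for both genotypes was measured as Renilla luciferase signal (EnduRen, 7.5 μM final, 2 h) after 3-day, 37° C exposure of replicon-bearing HUH-7 cells in 4% FCS DMEM, 0.5% DMSO. The 1b construct carries S1179I; the 1a H77 construct carries P1496L and S2204I. Twenty-point, 3-fold dilutions were fitted four-parametrically for EC50, and CC50 was taken from multiplexed Cell Titer-Blue.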

[2] = tested on: HCV genotype 1a (H77 strain) replicon in HUH-7 cells; assay: HCV replicon luciferase reporter assay, genotype 1a; format: cell-based; conditions: Hepatitis C virus, Huh-7, 72 h, 3 days incubation
How it was run: as §1

[3] = GETYPE1B, HCV genotype 1b replicon luciferase, read-out: LE_1b (EC50, range)
[4] = GETYPE1A, HCV genotype 1a replicon luciferase, read-out: LE_1a (EC50, range)
[5] = HCV genotype 1b replicon luciferase assay, range class, read-out: LE_1b (EC50, range)
[6] = HCV genotype 1a replicon luciferase assay, range class, read-out: LE_1a (EC50, range)
[7] = HCV genotype 1b replicon luciferase, read-out: LE_1b (EC50, range)
[8] = HCV genotype 1a replicon luciferase, read-out: LE_1a (EC50, range)

Row | Compound | EC50 [1, 3] [nM] | EC50 [2, 4] [nM] | EC50 [1, 7] [nM] | EC50 [2, 8] [nM] | further results
1 | C[C@@H]1CC/C=C\[C@@H]2C[C@@]2(C(=O)NS(=O)(=O)C2CC2)NC(=O)[C@@H]2C[C@@H](Oc3ncc(OCC4CC4)c4ccc(F)cc34)CN2C(=O)[C@@H](NC(=O)OC(C)(C)C(F)(F)F)[C@H](C)C1 [Compound 4067] | < 5.46 | 4.82 to 103 | – | – | –
2 | COc1ccc2c(O[C@@H]3C[C@H]4C(=O)N[C@]5(C(=O)NS(=O)(=O)C6(CF)CC6)C[C@H]5/C=C\CC[C@H](C)C[C@@H](C)[C@H](NC(=O)OC(C)(C)C)C(=O)N4C3)nc(N3CCCC3)nc2c1 [Compound 3013, tert-butyl ((2R,6S,7R,9S,13aS,14aR,16aS,Z)-14a-(((1-(fluoromethyl)cyclopropyl)sulfonyl)carbamoyl)-2-((7-methoxy-2-(pyrrolidin-1-yl)quinazolin-4-yl)oxy)-7,9-dimethyl-5,16-dioxo-1,2,3,5,6,7,8,9,10,11,13a,14,14a,15,16,16a-hexadecahydrocyclopropa[e]pyrrolo[1,2-a][1,4]diazacyclopentadecin-6-yl)carbamate] | – | – | – | – | EC50 [1, 5]: 4.82 to 103 nM; EC50 [2, 6]: 4.82 to 103 nM
3 | CCOc1ccc2c(O[C@@H]3C[C@H]4C(=O)N[C@]5(C(=O)NS(=O)(=O)C6(C)CC6)C[C@H]5/C=C\CC[C@@H](C)C[C@@H](CC)[C@H](NC(=O)OC(C)(C)C(C)(F)F)C(=O)N4C3)nccc2c1 [Compound 5371, 3,3-difluoro-2-methylbutan-2-yl((2R,6S,7R,9R,13aS,14aR,16aS,Z)-2-((6-ethoxyisoquinolin-1-yl)oxy)-7-ethyl-9-methyl-14a-(((1-methylcyclopropyl)sulfonyl)carbamoyl)-5,16-dioxo-1,2,3,5,6,7,8,9,10,11,13a,14,14a,15,16,16a-hexadecahydrocyclopropa[e]pyrrolo[1,2-a][1,4]diazacyclopentadecin-6-yl)carbamate] | – | – | 0.51 to 1 | 1.01 to 5 | –
4 | CC[C@@H]1C[C@H](C)CC/C=C\[C@@H]2C[C@@]2(C(=O)NS(=O)(=O)C2(C)CC2)NC(=O)[C@@H]2C[C@@H](Oc3ncc(OC)c4ccc(F)cc34)CN2C(=O)[C@H]1NC(=O)N1CCOCC1 [Compound 4284, N-((2R,6S,7R,9R,13aS,14aR,16aS,Z)-7-ethyl-2-((7-fluoro-4-methoxyisoquinolin-1-yl)oxy)-9-methyl-14a-(((1-methylcyclopropyl)sulfonyl)carbamoyl)-5,16-dioxo-1,2,3,5,6,7,8,9,10,11,13a,14,14a,15,16,16a-hexadecahydrocyclopropa[e]pyrrolo[1,2-a][1,4]diazacyclopentadecin-6-yl)morpholine-4-carboxamide] | – | – | 0.1 to 0.5 | 0.51 to 1 | EC50 ([1]; HCV genotype 1b replicon luciferase, read-out: LE_1b (EC50)): 0.42 nM; EC50 ([2]; HCV genotype 1a replicon luciferase, read-out: LE_1a (EC50)): 0.73 nM
5 | CCOc1ccc2nc(Cl)c(O[C@@H]3C[C@H]4C(=O)N[C@]5(C(=O)NS(=O)(=O)C6(C)CC6)C[C@H]5/C=C\CC[C@@H](C)C[C@@H](C)[C@H](NC(=O)OC(C)(C)C(F)(F)F)C(=O)N4C3)c(Cl)c2c1 [Compound 4312] | 5.01 to 35 | 5.01 to 35 | – | – | EC50 ([1]; GETYPE1B, HCV genotype 1b replicon luciferase, read-out: LE_1b (EC50)): 12.2 nM; EC50 ([2]; GETYPE1A, HCV genotype 1a replicon luciferase, read-out: LE_1a (EC50)): 20.9 nM
6 | COc1cc(O[C@@H]2C[C@H]3C(=O)N[C@]4(C(=O)NS(=O)(=O)C5(C)CC5)C[C@H]4/C=C\CC[C@@H](C)C[C@@H](C)[C@H](NC(=O)OC(C)(C)C(C)(F)F)C(=O)N3C2)c2cc(F)c(OC)cc2n1 [Compound 1204] | 0.51 to 1 | 1.01 to 5 | – | – | –
7 | CC[C@@H]1C[C@H](C)CC/C=C\[C@@H]2C[C@@]2(C(=O)NS(=O)(=O)C2CC2)NC(=O)[C@@H]2C[C@@H](Oc3nc(-c4ccc(OC(C)C)cn4)cc4cc(OC)ccc34)CN2C(=O)[C@H]1NC(=O)OC(C)(C)C(F)(F)F [Compound 5485, 1,1,1-trifluoro-2-methylpropan-2-yl((2R,6S,7R,9R,13aS,14aR,16aS,Z)-14a-((cyclopropylsulfonyl)carbamoyl)-7-ethyl-2-((3-(5-isopropoxypyridin-2-yl)-6-methoxyisoquinolin-1-yl)oxy)-9-methyl-5,16-dioxo-1,2,3,5,6,7,8,9,10,11,13a,14,14a,15,16,16a-hexadecahydrocyclopropa[e]pyrrolo[1,2-a][1,4]diazacyclopentadecin-6-yl)carbamate] | – | – | 1.01 to 5 | 1.01 to 5 | –
8 | [2H]C([2H])([2H])C(OC(=O)N[C@@H]1C(=O)N2C[C@H](Oc3nc(N4CCOCC4)cc4cc(OC)ccc34)C[C@H]2C(=O)N[C@]2(C(=O)NS(=O)(=O)C3CC3)C[C@H]2/C=C\CC[C@H](C)C[C@H]1C)(C([2H])([2H])[2H])C(F)(F)F [Compound 3100, 1,1,1,3,3,3-hexadeutero-2-(trifluoromethyl)propan-2-yl((2R,6S,7R,9S,13aS,14aR,16aS,Z)-14a-((cyclopropylsulfonyl)carbamoyl)-2-((6-methoxy-3-morpholinoisoquinolin-1-yl)oxy)-7,9-dimethyl-5,16-dioxo-1,2,3,5,6,7,8,9,10,11,13a,14,14a,15,16,16a-hexadecahydrocyclopropa[e]pyrrolo[1,2-a][1,4]diazacyclopentadecin-6-yl)carbamate] | – | – | – | – | EC50 [1, 5]: < 5.46 nM; EC50 [2, 6]: < 5.46 nM
9 | [2H]C([2H])([2H])Oc1cnc(O[C@@H]2C[C@H]3C(=O)N[C@]4(C(=O)NS(=O)(=O)C5(C)CC5)C[C@H]4/C=C\CC[C@H](C)C[C@@H](C)[C@H](NC(=O)NC(C)(C)C)C(=O)N3C2)c2ccccc12 [Compound 5106, (2R,6S,7R,9S,13aS,14aR,16aS,Z)-6-(3-(tert-butyl)ureido)-7,9-dimethyl-N-((1-methylcyclopropyl)sulfonyl)-5,16-dioxo-2-((4-(trideuteromethoxy)isoquinolin-1-yl)oxy)-1,2,3,5,6,7,8,9,10,11,13a,14,14a,15,16,16a-hexadecahydrocyclopropa[e]pyrrolo[1,2-a][1,4]diazacyclopentadecine-14a-carboxamide] | – | – | < 5.46 | < 5.46 | –
10 | COc1cnc(O[C@@H]2C[C@H]3C(=O)N[C@]4(C(=O)NS(=O)(=O)C5(CO)CC5)C[C@H]4/C=C\CC[C@@H](C)C[C@@H](C)[C@H](NC(=O)OC(C)(C)C(F)(F)F)C(=O)N3C2)c2ccccc12 [Compound 4110] | 4.82 to 103 | 4.82 to 103 | – | – | –
11 | COc1cc2ccnc(O[C@@H]3C[C@H]4C(=O)N[C@]5(C(=O)NS(=O)(=O)C6(F)CC6)C[C@H]5/C=C\CC[C@@H](C)C[C@@H](C)[C@H](NC(=O)OCC5(C)CC5)C(=O)N4C3)c2cc1F [Compound 4050, (1-methylcyclopropyl)methyl (2R,6S,7R,9R,13aS,14aR,16aS,Z)-2-(7-fluoro-6-methoxyisoquinolin-1-yloxy)-14a-(1-fluorocyclopropylsulfonylcarbamoyl)-7,9-dimethyl-5,16-dioxo-1,2,3,5,6,7,8,9,10,11,13a,14,14a,15,16,16a-hexadecahydrocyclopropa[e]pyrrolo[1,2-a][1,4]diazacyclopentadecin-6-ylcarbamate] | – | – | < 5.46 | < 5.46 | –
12 | CC[C@@H]1C[C@H](C)CC/C=C\[C@@H]2C[C@@]2(C(=O)NS(=O)(=O)C2CC2)NC(=O)[C@@H]2C[C@@H](Oc3ncnc4cc(OC)ccc34)CN2C(=O)[C@H]1NC(=O)OC(C)(C)C [Compound 4239, tert-butyl ((2R,6S,7R,9R,13aS,14aR,16aS,Z)-14a-((cyclopropylsulfonyl)carbamoyl)-7-ethyl-2-((7-methoxyquinazolin-4-yl)oxy)-9-methyl-5,16-dioxo-1,2,3,5,6,7,8,9,10,11,13a,14,14a,15,16,16a-hexadecahydrocyclopropa[e]pyrrolo[1,2-a][1,4]diazacyclopentadecin-6-yl)carbamate] | – | – | < 5.46 | < 5.46 | –
